Assay type in all cases: physicochemical
The nature of data set [1]: Water solubility testing (saturated solution in distilled water, UV-vis 347 nm). To be noted: for Concentration (water solubility): 30 min. As for the experimental part:
A UV-vis Lambda 35 spectrophotometer (Perkin-Elmer) was used (A=347 nm, 1.0 cm quartz cells). Perkin Elmer® UV WinLab-5.1 software was used.
A saturated solution of Tigecycline in distilled water was prepared and the suspension was stirred at room temperature for 30 minutes with a stirring speed of 1000 U/min. The suspension was filtrated through a 0.45 μm filter. Finally the resulting solution was diluted 10000-fold and measured against water at a wavelength of 347 nm.

The nature of data set [2]: Water content and hygroscopicity, open storage for 24 hours at 80% relative humidity. The following applies: for water content 1 day at 80% rH: open storage 1 day at 80% rH; for water uptake 1 day at 80% rH: open storage for 24 hours at 80% relative humidity. From the text:
Furthermore suitable crystalline forms of Tigecycline should be low hygroscopic, as water uptake may cause the formation of undesired byproducts like e.g. 4-Epi-Tigecycline. […] Therefore crystalline form X is less hygroscopic than forms I, II, Ill and V of WO 2006/128150 and also less hygroscopic than form I of WO 2007/127292.

Data set [3] is described as follows: Stability after storing different forms of Tigecycline at 80° C. for 7 days. The following applies: for 4-Epi-Tigecycline 7 days at 80° C. / Total impurities 7 days at 80° C.: after storing 7 days at 80° C.; for 4-Epi-Tigecycline ambient conditions / Total impurities ambient conditions: ambient conditions (before storage).

≈ marks a conversion by molar mass, not a printed value.

Regarding `CN(C)c1cc(NC(=O)CNC(C)(C)C)c(O)c2c1C[C@H]1C[C@H]3[C@H](N(C)C)C(O)=C(C(N)=O)C(=O)[C@@]3(O)C(O)=C1C2=O` [WO 2007/127292 I, Tigecycline], the “Concentration (water solubility)” value in data set [1] came to 54 mg/mL. In data set [2], the “water content [%] ambient conditions” value stood at 0.13%, the “water content 1 day at 80% rH” value came out at 6.39% and the “water uptake 1 day at 80% rH” value stood at 6.26%. The “water uptake 1 day at 80% rH” value in data set [2] (listed as form I of WO 2007/127292) was found to be 6.26%. In data set [3] (listed as WO 2007/127792 I), this compound yielded a 4-Epi-Tigecycline 7 days at 80° C. of 1.26%, a Total impurities 7 days at 80° C. of 2.22%, a 4-Epi-Tigecycline ambient conditions of 0.34% and a Total impurities ambient conditions of 0.59%.
For the compound `CN(C)c1cc(NC(=O)CNC(C)(C)C)c(O)c2c1C[C@H]1C[C@H]3[C@H](N(C)C)C(O)=C(C(N)=O)C(=O)[C@@]3(O)C(O)=C1C2=O` [WO 2006/128150 III, Tigecycline], the “Concentration (water solubility)” value in data set [1] came to 174 mg/mL. The “water content [%] ambient conditions” value in data set [2] was 0.69%. In data set [3], this compound returned a 4-Epi-Tigecycline ambient conditions of 0.16% and a Total impurities ambient conditions of 0.16%.
Take `CN(C)c1cc(NC(=O)CNC(C)(C)C)c(O)c2c1C[C@H]1C[C@H]3[C@H](N(C)C)C(O)=C(C(N)=O)C(=O)[C@@]3(O)C(O)=C1C2=O` [WO 2007/127292 II, Tigecycline]: in data set [2], the “water content [%] ambient conditions” value is recorded as 0.18%, the “water content 1 day at 80% rH” value amounted to 0.25% and the “water uptake 1 day at 80% rH” value came to 0.07%. In addition, in data set [3] (listed as WO 2007/127792 II), the 4-Epi-Tigecycline 7 days at 80° C. stood at 0.38%, the Total impurities 7 days at 80° C. was determined as 0.91%, the 4-Epi-Tigecycline ambient conditions came out at 0.17% and the Total impurities ambient conditions was 0.24%.
For `CN(C)c1cc(NC(=O)CNC(C)(C)C)c(O)c2c1C[C@H]1C[C@H]3[C@H](N(C)C)C(O)=C(C(N)=O)C(=O)[C@@]3(O)C(O)=C1C2=O` [X, Tigecycline], in data set [1], the “Concentration (water solubility)” value was determined as 162 mg/mL. In data set [2], the “water content [%] ambient conditions” value is 0.29%, the “water content 1 day at 80% rH” value came to 0.86% and the “water uptake 1 day at 80% rH” value came to 0.57%. The “water uptake 1 day at 80% rH” value in data set [2] (listed as form X) came out at 0.57%. In data set [3], this compound registered a 4-Epi-Tigecycline 7 days at 80° C. of 0.79%, a Total impurities 7 days at 80° C. of 3.48%, a 4-Epi-Tigecycline ambient conditions of 0.2% and a Total impurities ambient conditions of 0.58%.
In the case of `CN(C)c1cc(NC(=O)CNC(C)(C)C)c(O)c2c1C[C@H]1C[C@H]3[C@H](N(C)C)C(O)=C(C(N)=O)C(=O)[C@@]3(O)C(O)=C1C2=O` [WO 2006/128150 V, Tigecycline], in data set [2], the “water content [%] ambient conditions” value is 0.19%. For the same compound, in data set [3], the 4-Epi-Tigecycline 7 days at 80° C. was found to be 0.18%, the Total impurities 7 days at 80° C. amounted to 0.37%, the 4-Epi-Tigecycline ambient conditions is below 0.05% and the Total impurities ambient conditions is 0.22%.
With `CN(C)c1cc(NC(=O)CNC(C)(C)C)c(O)c2c1C[C@H]1C[C@H]3[C@H](N(C)C)C(O)=C(C(N)=O)C(=O)[C@@]3(O)C(O)=C1C2=O` [WO 2006/128150 I, Tigecycline], in data set [1], the “Concentration (water solubility)” value was 201 mg/mL. Also, the “water uptake 1 day at 80% rH” value in data set [2] came to 3.00%. Besides, in data set [3], the 4-Epi-Tigecycline ambient conditions was 0.36% and the Total impurities ambient conditions worked out at 0.75%.
Take `CN(C)c1cc(NC(=O)CNC(C)(C)C)c(O)c2c1C[C@H]1C[C@H]3[C@H](N(C)C)C(O)=C(C(N)=O)C(=O)[C@@]3(O)C(O)=C1C2=O` [WO 2006/128150 II, Tigecycline]: the “Concentration (water solubility)” value in data set [1] was found to be 170 mg/mL. Moreover, in data set [3], the Total impurities ambient conditions was found to be 1.6%.
In the case of `CN(C)c1cc(NC(=O)CNC(C)(C)C)c(O)c2c1C[C@H]1C[C@H]3[C@H](N(C)C)C(O)=C(C(N)=O)C(=O)[C@@]3(O)C(O)=C1C2=O` [WO 2006/128150 IV, Tigecycline], the solubility at 30 min in data set [1] (distilled water, water, thermodynamic from solid, distilled water, room temperature, stirred 30 minutes, 0.45 μm filter, read-out: Concentration (water solubility)) was 322 mg/mL (≈ 550 mM). Also, in data set [2], the “water content [%] ambient conditions” value turned out to be 2.90% and the “water uptake 1 day at 80% rH” value was 0.43%. Further, in data set [3], the 4-Epi-Tigecycline 7 days at 80° C. amounted to 0.38%, the Total impurities 7 days at 80° C. is 0.87%, the 4-Epi-Tigecycline ambient conditions is 0.23% and the Total impurities ambient conditions came out at 0.4%.

For the origin of these results see patent US20100256402A1, “NOVEL SOLVATE” (Sandoz AG, priority 2007, published 2010).
